US20250339569A1, “CARBONIC ANHYDRASE IX LIGANDS” (priority 2021, published 2025)
Where two headings read alike, the source gives them in different places.

Experiment: Extended single-dose toxicity study including safety pharmacology endpoints, i.v. bolus (GLP)
Assay type: in vivo, beagle dogs
Details: for tlast: median; for half-life / clearance / AUC(0-t) / level at 5 min / Vd: beagle, plasma; for half-life: harmonic mean; for level at 5 min: read-out: C5 min; for Vd: read-out: Vss
Experimental: The following parameters and endpoints were evaluated: mortality, clinical observations, body weights, food consumption, body temperature, local reactions, ophthalmology, clinical pathology parameters (hematology, coagulation, clinical chemistry, and urinalysis), cardiovascular and respiratory safety pharmacology endpoints along with FOB evaluation, organ weights, and macroscopic and microscopic examinations, and TK parameters. The animals from subset A (3 males and 3 females per group) were sampled for toxicokinetics (TK) at: pre-dose, 5 min, 15 min, 30 min, 1 h, 2 h, 3 h and 6 h. Blood samples were collected in K2EDTA tubes. Plasma was prepared by centrifugation (2500 g for 10 minutes, +4° C.) within 1 hour after collection, and then frozen within 1 hour after centrifugation and stored at −80° C. […] Chromatographic separation was achieved using a Waters Acquity UPLC system with a Waters Acquity HSS T3 C18 2.1×50 mm, 1.8 μm column. Chromatography was conducted at 50° C. at a flow rate of 0.7 mL/min using a mobile phase consisting of A: 1% formic acid in acetonitrile, and B: 1% formic acid in water, according to the following linear gradient: 0 to 0.1 min: 90% B; 0.1 to 4.1 min: from 90% B to 74% B; 4.1 to 4.2 min: from 74% B to 5% B; 4.2 to 4.6 min: 5% B; 4.6 to 4.7 min: from 5% B to 90% B; 4.7-5.1 min; 90% B. Detection was performed using a Sciex API6600 TOF mass spectrometer. Toxicokinetic parameters were estimated from concentration-time data using Phoenix pharmacokinetic software (version 6.4, Certara L. P.). A non-compartmental approach consistent with the bolus intravenous injection was used for parameter estimation.
The test item treatment led to unaffected body weights, weight gains, and food intake. Likewise, no treatment-related abnormalities were reported during ophthalmic examinations, urinalysis, blood biochemistry, coagulation, and hematology investigations. There were no related organ weight changes and macroscopic and microscopic observations at early and late necropsies. Jacketed external telemetry was used to evaluate the potential cardiovascular and respiratory effects in the Subset B. Cardiorespiratory telemetry recordings were performed during the pre-test, Day 1 and 14. The electrocardiogram (ECG) parameters (heart rate, PQ interval duration, QRS complex duration, and QT interval duration) were collected continuously after dosing over 10-minute periods up to 6 h and over 15-minute periods up to 24 h. Miyazaki's QT correction method (Miyazaki, H. & Tagawa, M. Japanese Association for Laboratory Animal Science 2002, 51, 465-75) was used to correct the influence of heart rate. […] Arterial blood pressure parameters (systolic and diastolic blood pressure and mean arterial pressure) were measured continuously during consecutive 30-minute periods at pre-dose and for up to 6 h after dosing and over consecutive 60-minute periods up to 24 h after dosing. The respiratory rate was monitored on the pre-test, Day 1 and Day 14 at 0.5, 1, 2, 3, 4, 6, 8, 12, 16, 20, and 24 h. […] The potential effects on central nervous system parameters were evaluated under restrained and non-restrained conditions using a FOB in Subset A. Neurologic, autonomic, and behavioral investigations were performed in the pre-test, pre-dose, and 1 hour after dosing on Day 1.

[1] = dog, iv, 16 ug/kg, Female, 16 μg/kg single i.v. bolus, mean n = 3
[2] = dog, iv, 16 ug/kg, Male, 16 μg/kg single i.v. bolus, mean n = 3
[3] = dog, iv, 80 ug/kg, Female, 80 μg/kg single i.v. bolus, mean n = 3
[4] = dog, iv, 80 ug/kg, Male, 80 μg/kg single i.v. bolus, mean n = 3
[5] = dog, iv, 400 ug/kg, Female, 400 μg/kg single i.v. bolus, mean n = 3
[6] = dog, iv, 400 ug/kg, Male, 400 μg/kg single i.v. bolus, mean n = 3

CC(C)C[C@@H]1NC(=O)[C@H](Cc2cccc(NC(=O)CCCS(N)(=O)=O)c2)NC(=O)[C@H](CC(=O)O)NC(=O)[C@H]2CCCN2C(=O)[C@H](CCC(=O)O)NC(=O)[C@@H](NC(=O)[C@H](CCC(N)=O)NC(=O)CN2CCN(C(=O)CN3CCN(CC(=O)O)CCN(CC(=O)O)CCN(CC(=O)O)CC3)CC2)CSCc2cccc(c2)CSC[C@@H](C(N)=O)NC(=O)[C@H](CO)NC(=O)[C@H](Cc2c[nH]c3ccccc23)NC(=O)[C@H]([C@@H](C)O)NC1=O [DPI-4452, DOTA-PPAc-Gln-[Cys(3MeBn)-Glu-pro-Asp-Af3(Cpsu)-Leu-Thr-Trp-Ser-Cys]-NH2]
human equivalent dose of the NOAEL (60 kg human): 13.3 mg | central nervous system effects (FOB) (1 hour after dosing, 16, 80, 400 μg/kg): No effects were observed on the central nervous system | tlast (Female, 16 μg/kg single i.v. bolus): 1 h | tlast (Female, 80 μg/kg single i.v. bolus): 3 h | AUClast (Female, 400 μg/kg single i.v. bolus, mean n = 3): 771 ng·h/mL | tlast (Female, 400 μg/kg single i.v. bolus): 3 h | tlast (Male, 16 μg/kg single i.v. bolus): 1 h | tlast (Male, 80 μg/kg single i.v. bolus): 2 h | AUClast (Male, 400 μg/kg single i.v. bolus, mean n = 3): 854 ng·h/mL | tlast (Male, 400 μg/kg single i.v. bolus): 3 h | tolerability (beagle dogs, single i.v. bolus up to 400 μg/kg): well tolerated | half-life (dog, iv, 16 ug/kg, Female, 16 μg/kg single i.v. bolus): 14.3 min | clearance [1]: 21.2 mL/min/kg | AUC(0-t) (dog, iv, 16 ug/kg, Female, 16 μg/kg single i.v. bolus, mean n = 3, read-out: AUClast): 12.4 ng·h/mL | level at 5 min [1]: 37.7 ng/mL | Vd [1]: 0.3 L/kg | half-life (dog, iv, 16 ug/kg, Male, 16 μg/kg single i.v. bolus): 15.5 min | clearance [2]: 18.3 mL/min/kg | AUC(0-t) (dog, iv, 16 ug/kg, Male, 16 μg/kg single i.v. bolus, mean n = 3, read-out: AUClast): 14 ng·h/mL | level at 5 min [2]: 43.5 ng/mL | Vd [2]: 0.26 L/kg | half-life (dog, iv, 80 ug/kg, Female, 80 μg/kg single i.v. bolus): 23.2 min | clearance [3]: 9.27 mL/min/kg | AUC(0-t) (dog, iv, 80 ug/kg, Female, 80 μg/kg single i.v. bolus, mean n = 3, read-out: AUClast): 144 ng·h/mL | level at 5 min [3]: 346 ng/mL | Vd [3]: 0.21 L/kg | half-life (dog, iv, 80 ug/kg, Male, 80 μg/kg single i.v. bolus): 21.7 min | clearance [4]: 10.1 mL/min/kg | AUC(0-t) (dog, iv, 80 ug/kg, Male, 80 μg/kg single i.v. bolus, mean n = 3, read-out: AUClast): 132 ng·h/mL | level at 5 min [4]: 332 ng/mL | Vd [4]: 0.21 L/kg | half-life (dog, iv, 400 ug/kg, Female, 400 μg/kg single i.v. bolus): 21.8 min | clearance [5]: 8.63 mL/min/kg | level at 5 min [5]: 1760 ng/mL | Vd [5]: 0.19 L/kg | half-life (dog, iv, 400 ug/kg, Male, 400 μg/kg single i.v. bolus): 23.7 min | clearance [6]: 7.88 mL/min/kg | level at 5 min [6]: 1840 ng/mL | Vd [6]: 0.19 L/kg | NOAEL at 14 days (both sexes, dog, in vivo, iv, beagle dogs, single i.v. bolus): 0.4 mg/kg | AUC(0-t) (female, dog, iv, 400 ug/kg, females, 400 μg/kg i.v., read-out: mean AUCtlast at the NOAEL): 771 ng·h/mL | cardiovascular and respiratory safety pharmacology (jacketed external telemetry, 16, 80, 400 μg/kg): no related effect on cardiovascular or respiratory parameters | AUC(0-t) (male, dog, iv, 400 ug/kg, males, 400 μg/kg i.v., read-out: mean AUCtlast at the NOAEL): 854 ng·h/mL | NOAEL cover of the predicted human dose (total ligand mass dose 500 μg/patient): more than 25 times
